US8772274B1, “Anti-cancer compositions and methods” (The Penn State Research Foundation, priority 2008, dated 2014)
Counter-ions that a name gives are not always drawn. Like-named read-outs stand apart in the source and are kept apart here.

Assays:
[1] = tested on: HT-29 colorectal adenocarcinoma cells; assay: MTS cell viability assay, HT-29; format: cell-based
[2] = tested on: UACC 903 melanoma cell line; assay: MTS cell viability assay, UACC 903; format: cell-based; settings: read-out: IC50, UACC 903 (Table I)
Experimental: (§1) Cellular viability compared to control treated cells is measured using the MTS assay (Promega, Madison, Wis.).

[3] = tested on: MDA-MB-231 breast adenocarcinoma cells; assay: MTS cell viability assay, MDA-MB-231; format: cell-based, human; settings: MDA-MB-231 breast adenocarcinoma; 24 h; MTS; read-out: Inhibition Cancer Cells IC50, MDA-MB-231 (Table III)
Experimental: (§2) Growth inhibitory effects on cultured cells from human vertical growth phase (VGP) melanoma cell line WM115, Lung adenocarcinoma (A549), fibrosarcoma (HT-1080), prostate adenocarcinoma (PC-3), ovarian carcinoma (OVCAR-3), and breast adenocarcinoma (MDA-MB-231) are plated in 96 well plates at a density of 5×10^3 cells/well in 100 μl media. […] Dose response curves for each compound are generated and the IC50 values (μM) determined using GraphPad Prism software. Each experiment is replicated at least 3 times and the average IC50 (μM) values with standard error represented.

[4] = tested on: normal human fibroblast cells (FF2441); assay: MTS cell viability assay, normal fibroblasts; format: cell-based; settings: FF2441; 24-72 hours; MTS; read-out: Inhibition of growth IC50, Fibroblast cells (FF2441) (Table II)
Experimental: (§3) 5×10^3 cells per well in 100 μl DMEM-10% FBS are grown in a 96-well plate for 36 or 72 hours, respectively for melanoma (UACC 903, 1205 Lu and WM115) and human fibroblast (FF2441) cell lines and treated with either PBS vehicle or increasing concentrations (3.5-21 μM) of PBIT, PBISe, PEIT or PEISe for 24 hours. Cellular viability compared to control treated cells is measured using the MTS assay (Promega, Madison, Wis.). IC50 (μM) values for each compound in respective cell lines is determined from three independent experiments using GraphPad Prism version 4.01 (GraphPad, San Diego, Calif.), bars, SEM.
Viability of colon adenocarcinoma cells (Caco-2, HT 29, HCT 116, SW 480) and normal fibroblast cells (FF2441) treated with PBIT (1), PBISe (2), PEIT (3) or PEISe (4) is compared. The IC50 value is evaluated by treating with increasing concentrations of PBIT, PEIT, PEISe (10-100 μM) or PBISe (1.6-50 μM) for 24-72 hours and the number of viable cell are quantified using MTS (Promega, Wis.).

[5] = tested on: A549 lung adenocarcinoma cells; assay: MTS cell viability assay, A549; format: cell-based, human; settings: A549 lung carcinoma; 24 h; MTS; read-out: Inhibition Cancer Cells IC50, A549 (Table III)
Experimental: as §2

[6] = tested on: Caco-2 colon adenocarcinoma cells; assay: MTS cell viability assay, Caco-2; settings: MTS
Experimental: In vitro inhibitory efficacy is measured using 3-(4,5-dimethylthiazol-2-yl)-5-(3-carboxymethoxyphenyl)-2-(4-sulfophenyl)-2H-tetrazolium (MTS) assay (Promega, Madison, Wis.). […] Cells are treated with either vehicle control, PBS, PBIT (40-120 μM) or PBISe (2.4-10 μM) for 72 h. The percentages of viable cells compared to control PBS treated cells are determined using MTS assay and IC50 values calculated using GraphPad Prism version 4.01 (GraphPad software, San Diego, Calif.). An IC50 value for each compound is determined by at least three independent experiments and represented with a standard error.
(§4) The IC50 value is evaluated by treating with increasing concentrations of PBIT, PEIT, PEISe (10-100 μM) or PBISe (1.6-50 μM) for 24-72 hours and the number of viable cell are quantified using MTS (Promega, Wis.).

[7] = tested on: HCT-116 colorectal adenocarcinoma cells; assay: MTS cell viability assay, HCT-116; format: cell-based
[8] = tested on: 1205Lu melanoma cell line; assay: MTS cell viability assay, 1205Lu; format: cell-based; settings: read-out: IC50, 1205Lu (Table I)
Experimental: as §1

[9] = tested on: HT-1080 fibrosarcoma cells; assay: MTS cell viability assay, HT-1080; format: cell-based, human; settings: HT-1080 fibrosarcoma; 24 h; MTS; read-out: Inhibition Cancer Cells IC50, HT-1080 (Table III)
Experimental: as §2

WM115 melanoma cell line = assay: MTS cell viability assay, WM115
Experimental: as §3
Growth inhibitory effects on cultured cells from human vertical growth phase (VGP) melanoma cell line WM115, Lung adenocarcinoma (A549), fibrosarcoma (HT-1080), prostate adenocarcinoma (PC-3), ovarian carcinoma (OVCAR-3), and breast adenocarcinoma (MDA-MB-231) are plated in 96 well plates at a density of 5×10^3 cells/well in 100 μl media. The cells are treated 36 hours later with PBISe (0.19-100 μM), PBIT (10-100 μM), PEIT 10-100 μM), or PEISe (10-100 μM) for 24 h and cell viability measured using MTS assay. Dose response curves for each compound are generated and the IC50 values (μM) determined using GraphPad Prism software. Each experiment is replicated at least 3 times and the average IC50 (μM) values with standard error represented.

[10] = tested on: colon adenocarcinoma cells (Caco-2, HT 29, HCT 116, SW 480); assay: MTS viability, four colon cancer cell lines (summary); format: cell-based; settings: Caco-2, HT 29, HCT 116, SW 480; 24-72 hours; read-out: IC50 range, four colon cancer cell lines
Experimental: as §4

[11] = tested on: iNOS (total nitrate+nitrite in Caco-2 cells); assay: Nitrite estimation (nitrate/nitrite colorimetric assay); format: cell-based; settings: 80 μM, 72 hours
Experimental: Nitrite content in cell culture media is determined using a nitrate/nitrite colorimetric assay kit (Cayman Chemical Company, Ann Arbor, Mich.) essentially as described in Salvucci, O. et al., Cancer Res 2001; 61:318-26. Caco-2 cells (1×10^6) are plated in 60 mm culture dishes in advanced DMEM containing 10% heat treated FBS for 12 hours, growing cells conditioned with phenol-red free DMEM containing 0.5% FBS for an additional 12 hours. Cells are then treated with increasing concentrations of PBIT (40 and 80 μM) or PBISe (2 and 4 μM) dissolved in phenol-red free DMEM (2 ml) containing 0.5% FBS for 72 hours. Culture supernatants are collected and total nitrite (nitrate+nitrite) measured by incubating 80 μL supernatant with enzyme cofactor mixture (10 μL) and nitrate reductase (10 μL) for 2 hours. Total nitrite is measured by the addition of Griess reagent-I and II (50 μL each). A nitrate standard curve (5-35 μM) is simultaneously prepared. Total nitrite present in media alone is subtracted from all experimental values and represented as micromolar nitrite produced following each treatment.

[12] = tested on: A549, Caco-2, HT-1080, PC-3, OVCAR-3, MDA-MB-231, WM115; assay: MTS viability, all cancer cell lines tested (summary); format: cell-based, human; settings: Table III; read-out: concentration decreasing cell viability by 50% (IC50), cancer cell lines of Table III
Experimental: as §2

[13] = Toxicity of topical application in vivo
Experimental: Blood collected from the control and experimental animals, at the end of treatment (day 29), are analyzed for SGOT, SGPT (representing liver and cardiac toxicity) and alkaline phosphatase (for kidney and cardiac toxicity). Additionally, concentrations of metabolites (glucose, creatinine, urea nitrogen and total protein) in serum are also determined.

[14] = tested on: OVCAR-3 ovarian carcinoma cells; assay: MTS cell viability assay, OVCAR-3; format: cell-based, human; settings: OVCAR-3 ovarian carcinoma; 24 h; MTS; read-out: Inhibition Cancer Cells IC50, OVCAR-3 (Table III)
Experimental: as §2

[15] = tested on: PI3 kinase/Akt3 and MAP kinase signaling in UACC 903 cells; assay: Western blot analysis of melanoma cell lysates; format: cell-based; settings: melanoma cells
Experimental: Melanoma cell line UACC 903 cells (1×10^6) are treated with increasing concentrations (7-21 μM) of PBIT and PBISe for 24 hours and cell lysates examined by Western blot analysis Cell lysates are harvested by addition of lysis buffer containing 50 mM HEPES (pH 7.5), 150 mM NaCl, 10 mM EDTA, 10% glycerol, 1% Triton X-100, 1 mM sodium orthovanadate, 0.1 mM sodium molybdate, 1 mM phenylmethylsulfonyl fluoride, 20 μg/ml aprotinin, and 5 μg/ml leupeptin. Whole cell lysates are centrifuged (≧10,000×g) for 10 minutes at 4° C. to remove cell debris. Protein concentrations are quantitated using the BCA assay (Pierce, Rockford, Ill.), and 30 μg of lysate loaded per lane onto NuPAGE Gels (Life Technologies, Carlsbad, Calif.). Following electrophoresis, samples are transferred to polyvinylidene difluoride membrane (Pall Corporation, Pensacola, Fla.). Blots are probed with antibodies to PRAS40 and phosphorylated PRAS40 (Thr246) (Invitrogen, Carlsbad, Calif.); antibodies to iNOS, cyclin D1, p27, p21, Erk2, α-enolase and secondary antibodies conjugated with horseradish peroxidase from Santa Cruz Biotechnology (Santa Cruz, Calif.); and antibodies to Akt3, phosphorylated-Akt (Ser473), phosphorylated-Erk 1/2 (Thr202/Tyr204), caspase-3 and cleaved PARP from Cell Signaling Technology (Danvers, Mass.). Immunoblots are developed using ECL (Pierce, Rockford, Ill.).

[16] = tested on: PC-3 prostate adenocarcinoma cells; assay: MTS cell viability assay, PC-3; format: cell-based, human; settings: PC-3 prostate adenocarcinoma; 24 h; MTS; read-out: Inhibition Cancer Cells IC50, PC-3 (Table III)
Experimental: as §2

[17] = tested on: SW-480 colorectal adenocarcinoma cells; assay: MTS cell viability assay, SW-480; format: cell-based; settings: Homo sapiens, SW480, read-out: Inhibition of growth IC50, last Colorectal adenocarcinoma row (Table II)
[18] = read-out: Inhibition of growth IC50, Caco-2 (Table II), Caco-2, 24-72 hours

N=C(N)[Se]CCc1ccccc1 (as salt: hydrobromid) [PEISe, s-2-phenylethylisoselenourea hydrobromide]
melting point: 140 to 142 °C

Br.Br.N=C(N)SCCc1ccc(CCSC(=N)N)cc1 [PBIT, s,s′-1,4-phenylene-bis(1,2-ethanediyl)bis-isothiourea dihydrobromide, reference compound]
IC50 ([1]; HT-29, 24-72 hours, MTS, read-out: Inhibition of growth IC50, HT-29 (Table II)): > 100 µM | IC50 ([2]; UACC 903 melanoma, 24 hours treatment, MTS): > 100 µM | IC50 [3]: > 100 µM | IC50 [4]: > 100 µM | IC50 [5]: > 100 µM | IC50 ([6]; read-out: Inhibition Cancer Cells IC50, Caco-2 (Table III), Caco-2 colorectal adenocarcinoma): 59.4 ± 3.8 µM | IC50 [6, 18]: 59.4 ± 3.83 µM | IC50 ([7]; HCT-116, 24-72 hours, MTS, read-out: Inhibition of growth IC50, HCT-116 (Table II)): > 100 µM | IC50 ([8]; 1205Lu melanoma, 24 hours treatment, MTS): > 100 µM | IC50 [9]: > 100 µM | IC50 (WM115 melanoma cell line; read-out: IC50, WM115 (Table I), WM115 melanoma, 24 hours treatment, MTS): > 100 µM | IC50 (WM115 melanoma cell line; read-out: Inhibition Cancer Cells IC50, WM115 (Table III), WM115 melanoma, 24 h, MTS): > 100 µM | IC50 [10]: 59 to 100 µM | total nitrate+nitrite levels compared to control PBS treated cells [11]: significantly reduces | IC50 [12]: > 100 µM | serum enzyme and metabolite levels, topical application ([13]; day 29, SGOT, SGPT, alkaline phosphatase, glucose, creatinine, urea nitrogen, total protein): no significant differences | body weight, topical application ([13]; topical every day, 29 days): no detectable differences | IC50 [14]: > 100 µM | iNOS expression ([15]; FIG. 4B): elevates | cyclin D1 levels ([15]; FIG. 4C): does not alter | IC50 [16]: > 100 µM

N=C(N)[Se]CCc1ccccc1 [PEISe, s-2-phenylethylisoselenourea hydrobromide]
IC50 ([1]; Homo sapiens, HT-29, read-out: Inhibition of growth IC50, HT-29 (Table II)): 21.9 ± 2.1 µM | IC50 ([2]; Homo sapiens, UACC-903, 24 h): > 100 µM | IC50 [6, 18]: 16 ± 2 µM | IC50 ([7]; Homo sapiens, HCT-116, read-out: Inhibition of growth IC50, HCT-116 (Table II)): > 100 µM | IC50 ([8]; Homo sapiens, 1205Lu, 24 h): > 100 µM | IC50 (WM115 melanoma cell line; Homo sapiens, WM-115, 24 h, read-out: IC50, WM115 (Table I)): ~80 µM | IC50 [17]: > 100 µM
